Holding throughout (type): cell-based, human
The subject of assay [1] is HCT116 colon cancer cells. The assay can be described thus: MTT viability assay against HCT-116 cells. How it is done: (§1) The KAC compounds were evaluated for antiproliferative effect against HCT-116 and MCF7 cell lines using the MTT viability assay and to calculate the relative IC50 values for each compound. Cells were seeded in triplicate in 96-well plates at a density of 10×10^3 cells/mL in a total volume of 100 μL per well and allowed to adhere overnight. Cells were treated with various concentrations of tested KAC compounds or 0.1% of DMSO (vehicle) for 27 h. Then the medium was discarded and 100 μL per well of MTT (5 mg/mL in PBS) containing medium was added. After incubation at 37° C. for 3 h, the MTT-containing medium was replaced by DMSO (100 μL per well) to dissolve the formazon crystal and incubated for 10 min. Absorbance of the solution was measured by microplate reader at […]. The IC50 values were calculated according to the dose-dependent curves using GraphPad prism, version 5.0. All the experiments were repeated in at least three independent experiments.
On the technique in general: Formazan colour is commonly taken as a measure of viable cells.

The subject of assay [2] is MCF7 breast cancer cells. The assay can be described thus: MTT viability assay against MCF7 cells. How it is done: as §1
Assay [3] relates to N87 stomach cancer cells. The assay can be described thus: MTT cytotoxicity assay against N87 cells. Particulars: for IC50: Homo sapiens, 96 h. How it is done:
Cytotoxicity of all the compounds against N87 cells was determined using MTT assay. Briefly, 25,000 cells suspended in 0.1 mL of cell culture media were added in each well of a 96-well plate. After allowing the cells to attach for 24 h, media was aspirated from all the wells, and different concentrations of anticancer compounds in cell culture media were added to the wells in triplicate. Six wells were incubated with drug free media, and used as control. 96 hours after the treatment, 25 μL of MTT solution (5 mg/mL in phosphate saline buffer, pH 7.4) was added to each well, and the plate was incubated for 4.5 hours at 37° C. in the incubator. After incubation, 100 μL of 10% SDS in 0.01 M hydrochloric acid was added to each well, and the plate was incubated overnight at 37° C. The next day absorbance was determined in each well at 590 nm using a plate reader. IC50 value of each compound was determined using GraphPad Prism.

The subject of assay [4] is HCT-116 cells. The assay can be described thus: Cell cycle analysis of HCT-116 cells (propidium iodide flow cytometry). The note with it: for cell cycle effect: HCT-116, 24 and 48 hours; for apoptosis: HCT-116, positive controls at 1 μM, 48 h. How it is done:
Flow cytometric analysis was used to determine DNA level in any given cell that has been stained with propidium iodide (PI). PI is a fluorescent DNA intercalating agent which binds stoichiometrically to nucleic acid. When bounded to DNA, its fluorescence intensity increases 20 fold (excitation 488 nm and emission 600 nm). As cells pass singly through a beam of light their cell cycle state is analyzed. The fluorescent intensity of DNA-bound PI correlates to the DNA content of the cell. This allows the cell population in G1 phase (diploid −2n), G2M phase (4n), or S phase (2n-4n) to be differentiated by plotting a histogram of the PI fluorescence versus cell counts (linear scale). G1 and G2M can be seen as distinct peaks, with the S phase shown as the population between these two peaks. Apoptotic cells are hypo-diploid (pre-G1) and have a low PI fluorescence due to DNA fragmentation [Riccardi, C.; Nicoletti, I., Analysis of apoptosis by propidium iodide staining and flow cytometry. Nature protocols 2006, 1 (3), 1458-1461].
To study cell cycle stage, adherent and detached cells were collected by trypsinization and centrifuged at 800×g for 15 min. Cells were washed twice with ice-cold PBS and fixed with slow addition of ice-cold 70% ethanol overnight at −20° C. Fixed cells were centrifuged at 800×g for 15 min and the pellet was re-suspended in 400 μL PBS and transferred to LP5 FACS tubes then stained with 50 μg/mL of PI, containing 50 μg/mL of DNase-free RNase A (to degraded any double strand RNA present), at 37° C. for 30 min. The DNA content of cells (10,000 cells/experimental group) was analyzed by flow cytometer at 488 nm using a FACSCalibur flow cytometer (BD Biosciences, San Jose, Calif.).
In general, G2/M cell cycle arrest is strongly associated with inhibition of tubulin polymerization. The effect of KX-01 analogue, KAC-3, was investigated with colon cancer HCT-116 cells by flow cytometry at two concentrations (5 μM and 10 μM) for 24 and 48 hours. […] The percentage of cells in G2/M phase after 24 h was 13.3% and 41.7% at concentrations of 5 μM and 10 μM, respectively compared to the control (9.0%) (see FIG. 9). […] The cell cycle analysis results for KAC-3 are typical for tubulin targeting agents, which characteristically cause G2/M blockade followed by apoptosis [Perez, E. A., Microtubule inhibitors: Differentiating tubulin-inhibiting agents based on mechanisms of action, clinical activity, and resistance. Molecular cancer therapeutics 2009, 8 (8), 2086-2095]. […] Cancer research and treatment: official journal of Korean Cancer Association 2017, 49 (3), 643-655; and Anbalagan, M.; Carrier, L.; Glodowski, S.; Hangauer, D.; Shan, B.; Rowan, B. G., KX-01, a novel Src kinase inhibitor directed toward the peptide substrate site, synergizes with tamoxifen in estrogen receptor a positive breast cancer. Breast cancer research and treatment 2012, 132 (2), 391-409]. […] Frontiers in pharmacology 2017, 8, 244].

The term IC50 denotes the concentration needed to halve the response being measured. Low readings indicate greater potency in that assay, high ones weaker potency in that assay.

On to `O=C(Cc1ccc(NC(=O)c2cccc(Cl)c2)cc1)NCc1ccco1` [KAC-18, 3-Chloro-N-(4-(2-((furan-2-ylmethyl)amino)-2-oxoethyl)phenyl)benzamide], for which half-maximal inhibition in assay [1] (Homo sapiens, HCT-116, 27 h) (IC50) required 23.9 µM.

Turning to `CCN(CC)C(=O)c1ccccc1C(=O)Nc1ccc(CC(=O)NCc2ccccc2)cc1` [KAC-04, N^1-(4-(2-(benzylamino)-2-oxoethyl)phenyl)-N^2,N^2-diethylphthalamide], the half-inhibitory concentration (IC50) in assay [2] (Homo sapiens, MCF7, 27 h) was over 50 µM; in assay [3], over 50 µM.

With `CCN(CC)C(=O)c1ccccc1-c1ccccc1C(=O)Nc1ccc(CC(=O)NCc2ccccc2)cc1` [KAC-07, N^2-(4-(2-(benzylamino)-2-oxoethyl)phenyl)-N^2′,N^2′-diethyl-[1,1′-biphenyl]-2,2′-dicarboxamide], the IC50 in assay [2] (Homo sapiens, MCF7, 27 h) was over 50 µM; in assay [3], over 50 µM.

For the compound `O=C(Cc1ccc(NC(=O)c2ccccc2)cc1)NCc1ccccc1` [KAC-08, N-(4-(2-(benzylamino)-2-oxoethyl)phenyl)benzamide], the IC50 in assay [2] (27 h) is 2.63 µM; in assay [2] (Homo sapiens, MCF7, 27 h) it was 2.6 µM; in assay [1] (27 h), 19.7 µM; in assay [1] (Homo sapiens, HCT-116, 27 h) it was 19.7 µM; in assay [3], over 50 µM. Further, the “IC50 N87” value in assay [3] (96 hours) is given as “much weaker”.

On to `CC(=O)Nc1ccc(CC(=O)NCc2ccccc2)cc1` [KAC-01, 2-(4-acetamidophenyl)-N-benzylacetamide], for which the IC50 in assay [2] (Homo sapiens, MCF7, 27 h) is 29.3 µM; in assay [1] (27 h) it was 18.8 µM; in assay [1] (Homo sapiens, HCT-116, 27 h), 18.8 µM; in assay [3], over 50 µM.

Take `Cc1ccc(NC(=O)c2ccc(CN3CCN(C)CC3)cc2)cc1Nc1nccc(-c2cccnc2)n1` [imatinib, reference compound]: in assay [4], the “cell cycle effect” value is listed as “no significant difference in the other cell cycle phases” and the apoptosis is 6.4%.

On to `O=C(Cc1ccc(NC(=O)c2ccccc2-c2ccccc2C(=O)N2CCOCC2)cc1)NCc1ccccc1` [KAC-06, N-(4-(2-(benzylamino)-2-oxoethyl)phenyl)-2′-(morpholine-4-carbonyl)-[1,1′-biphenyl]-2-carboxamide], for which the IC50 in assay [2] (Homo sapiens, MCF7, 27 h) is 34.9 µM; in assay [1] (Homo sapiens, HCT-116, 27 h), 30.6 µM; in assay [3] it was over 50 µM.

The compound `O=C(Cc1ccc(NC(=O)c2cccc(Cl)c2)cc1)NCc1ccc(F)cc1` [KAC-16, 3-Chloro-N-(4-(2-((4-fluorobenzyl)amino)-2-oxoethyl)phenyl)benzamide] returned a concentration for half-maximal inhibition (IC50) in assay [1] (Homo sapiens, HCT-116, 27 h) of over 50 µM.

Compound `O=C(Cc1ccc(NC(=O)c2ccccc2C(=O)N2CCCCC2)cc1)NCc1ccccc1` [KAC-02, N-(4-(2-(benzylamino)-2-oxoethyl)phenyl)-2-(piperidine-1-carbonyl)benzamide] yielded an IC50 in assay [2] (Homo sapiens, MCF7, 27 h) of 9.48 µM. This lies in the single-digit micromolar range.

Turning to `Cc1ccc(S(=O)(=O)Nc2ccc(CC(=O)NCc3ccccc3)cc2)cc1` [KAC-10, N-benzyl-2-(4-((4-methylphenyl)sulfonamido)phenyl)acetamide], in assay [1] (Homo sapiens, HCT-116, 27 h), the IC50 was 22.7 µM.

Turning to `CC(=O)O[C@H]1C(=O)[C@@]2(C)[C@H]([C@H](OC(=O)c3ccccc3)[C@]3(O)C[C@H](OC(=O)[C@H](O)[C@@H](NC(=O)c4ccccc4)c4ccccc4)C(C)=C1C3(C)C)[C@]1(OC(C)=O)CO[C@@H]1C[C@@H]2O` [Paclitaxel, reference compound], in assay [4], the “cell cycle effect” value is given as “no significant difference in the other cell cycle phases” and the apoptosis came to 7.7%.

`O=C(Cc1ccc(NC(=O)c2cccc(Cl)c2)cc1)NCCc1ccccc1` [KAC-17, 3-Chloro-N-(4-(2-oxo-2-(phenethylamino)ethyl)phenyl)benzamide] yielded an IC50 in assay [1] (Homo sapiens, HCT-116, 27 h) of 25.9 µM. This counts as double-digit micromolar.

In the case of `O=C(Cc1ccc(NC(=O)c2ccccc2-c2ccccc2C(=O)N2CCCCC2)cc1)NCc1ccccc1` [KAC-05, N-(4-(2-(benzylamino)-2-oxoethyl)phenyl)-2′-(piperidine-1-carbonyl)-[1,1′-biphenyl]-2-carboxamide], the IC50 in assay [2] (Homo sapiens, MCF7, 27 h) is 44.2 µM; in assay [1] (Homo sapiens, HCT-116, 27 h) it was over 50 µM.

`COc1ccc(CNC(=O)Cc2ccc(NC(=O)c3cccc(Cl)c3)cc2)cc1` [KAC-15, 3-Chloro-N-(4-(2-((4-methoxybenzyl)amino)-2-oxoethyl)phenyl)benzamide] yielded an IC50 in assay [1] (Homo sapiens, HCT-116, 27 h) of over 50 µM.

Values taken from patent publication US11312680B2, “Method for treating a patient having a colon cancer” (King Abdulaziz University, priority 2019, dated 2022).
